According to patent publication US20260184687A1, “DIHYDROINDENE DERIVATIVES AS MALT1 INHIBITORS” (C4X Discovery Limited, priority 2022, published 2026):

Target: T1, FL hMALT1 enzyme (Homo sapiens, UniProt Q9UDY8);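 further: Cell-free protease assay: enzyme preincubated with compound 30 min at room temperature, then cleavage of fluorogenic Ac-LVSR-AMC substrate (100 µM) tracked by fluorescence (ex 360/em 460 nm)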
T1 sequence (Q9UDY8 1-824): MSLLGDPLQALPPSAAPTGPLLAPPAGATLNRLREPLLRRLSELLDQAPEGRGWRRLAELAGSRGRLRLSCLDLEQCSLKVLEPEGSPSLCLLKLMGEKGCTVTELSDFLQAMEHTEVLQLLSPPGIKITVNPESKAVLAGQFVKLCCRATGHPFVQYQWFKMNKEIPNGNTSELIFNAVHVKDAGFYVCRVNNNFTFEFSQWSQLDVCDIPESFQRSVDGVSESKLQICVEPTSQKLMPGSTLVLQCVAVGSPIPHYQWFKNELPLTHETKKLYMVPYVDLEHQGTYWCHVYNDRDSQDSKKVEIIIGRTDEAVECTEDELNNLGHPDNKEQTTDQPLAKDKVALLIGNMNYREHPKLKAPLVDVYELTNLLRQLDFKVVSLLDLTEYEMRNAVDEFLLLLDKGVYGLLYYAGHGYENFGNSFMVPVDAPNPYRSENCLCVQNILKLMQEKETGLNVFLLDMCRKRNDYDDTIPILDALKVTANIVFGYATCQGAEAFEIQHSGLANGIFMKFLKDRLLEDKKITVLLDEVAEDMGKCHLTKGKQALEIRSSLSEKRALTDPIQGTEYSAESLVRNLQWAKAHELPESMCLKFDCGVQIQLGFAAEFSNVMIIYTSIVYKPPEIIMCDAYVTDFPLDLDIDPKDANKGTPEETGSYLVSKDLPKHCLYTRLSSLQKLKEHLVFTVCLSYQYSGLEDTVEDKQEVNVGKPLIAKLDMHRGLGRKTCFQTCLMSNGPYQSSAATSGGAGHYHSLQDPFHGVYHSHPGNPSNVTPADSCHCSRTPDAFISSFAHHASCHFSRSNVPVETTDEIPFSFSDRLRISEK
Assay: biochemical
Details: not given

| SMILES | IC50 |
| --- | --- |
| CN(C(=O)C12CC(NS(C)(=O)=O)(C1)C2)[C@@H](c1ccc(NC2Cc3ccc(Cl)c(Cl)c3C2)cn1)C(F)(F)F (single isomer, unassigned) [Example 322] | 0.31 µM |
| CN(C(=O)C1CNC(=O)O1)[C@@H](c1ccc(N[C@H]2Cc3ccc(Cl)cc3C2)cn1)C(F)(F)F (stereo partly drawn) [Example 303, N—((S)-1-(5-(((S)-5-Chloro-2,3-dihydro-1H-inden-2-yl)amino)pyridin-2-yl)-2,2,2-trifluoroethyl)-N-methyl-2-oxooxazolidine-5-carboxamide] | 0.19 µM |
| CN(C(=O)CN1CCCS1(=O)=O)[C@@H](c1ccc(NC2Cc3ccc(Cl)c(F)c3C2)cn1)C(F)(F)F (single isomer, unassigned) [Example 362] | 0.28 µM |
| CN(C(=O)C1CCS(=O)(=O)CC1)[C@@H](c1ccc(NC2Cc3ccc(Cl)c(C(F)(F)F)c3C2)cn1)C(F)(F)F (single isomer, unassigned) [Example 311] | 0.3 µM |
| CN(C(=O)C1CN(C(=O)CO)C1)[C@@H](c1ccc(NC2Cc3ccc(Cl)c(Cl)c3C2)cn1)C(F)(F)F (single isomer, unassigned) [Example 378] | 1.29 µM |
| CN(C(=O)C1CN2CCC1CC2)[C@@H](c1ccc(NC2Cc3ccccc3C2(C)C)cn1)C(F)(F)F (single isomer, unassigned) [Example 138] | 0.78 µM |
| CN(C(=O)C1CCS(=O)(=O)CC1)[C@@H](c1ccc(NC2Cc3cccc(C(F)(F)F)c3C2)cn1)C(F)(F)F (single isomer, unassigned) [Example 190] | 3.3 µM |
| CN(C(=O)C1CCS(=O)(=O)CC1)[C@@H](c1ccc(NC2Cc3cc(F)cc(F)c3C2)cn1)C(F)(F)F (single isomer, unassigned) [Example 269] | 0.15 µM |
| CN(C(=O)C1CCS(=O)(=O)CC1)[C@@H](c1ccc(NC2Cc3cc(F)c(F)c(F)c3C2)cn1)C(F)(F)F (single isomer, unassigned) [Example 296] | 1.4 µM |

Continued, values first:

| IC50 | SMILES |
| --- | --- |
| 1.64 µM | CN(C(=O)C1CCS(=O)(=O)CC1)[C@@H](c1ccc(NC2Cc3ccc(Cl)cc3C2)nc1)C(F)(F)F (single isomer, unassigned) [Example 288] |
| 0.13 µM | CN(C(=O)C1CC2(CNC2)C1)[C@@H](c1ccc(N[C@H]2Cc3ccccc3C2(C)C)cn1)C(F)(F)F [Example 173, N—((S)-1-(5-(((S)-1,1-Dimethyl-2,3-dihydro-1H-inden-2-yl)amino)pyridin-2-yl)-2,2,2-trifluoroethyl)-N-methyl-2-azaspiro[3.3]heptane-6-carboxamide] |
| 0.19 µM | CN(C(=O)C1COCC(=O)N1)[C@@H](c1ccc(NC2Cc3ccccc3C2(C)C)cn1)C(F)(F)F (single isomer, unassigned) [Example 163] |
| 0.68 µM | CN(C(=O)[C@H]1CCC(=O)NC1)[C@@H](c1ccc(NC2Cc3ccc(Cl)c(C4CC4)c3C2)cn1)C(F)(F)F (single isomer, unassigned) [Example 329] |
| 0.2 µM | COCCN1CCC12CC(C(=O)N(C)[C@@H](c1ccc(NC3Cc4ccccc4C3(C)C)cn1)C(F)(F)F)C2 (single isomer, unassigned) [Example 242] |

Tested on: IL-2 release from stimulated Jurkat cells
Assay: Human IL-2 Release Phenotypic Assay (Assay 3)
Type: cell-based
Details: Homo sapiens, Jurkat, 48 h, Jurkat cells (clone E6-1), 200 ng/mL PMA + 300 ng/mL ionomycin, IL-2 by ELISA
Experimental: This assay measured the inhibition by MALT1 inhibitors of the IL-2 release from stimulated Jurkat cells, a human immortalized T lymphocyte cell line. IL-2 production from Jurkat cells is regulated by activation of NFκB signalling, which is in turn regulated by MALT1 protease activity.
Jurkat cells (clone E6-1, ATCC) were cultured in RPMI1640 supplemented with 10% (v/v) FBS and 1% (v/v) penicillin/streptomycin (100× liquid stocks). Cells were seeded in 96-well white tissue culture-treated plates (Perkin Elmer) at 50 000 cells/well and incubated overnight at 37° C., 5% CO2. Test compounds in DMSO at half-log dilutions were added to the cells and incubated for 30 mins. Final DMSO concentration was 0.5%. Cells were then stimulated with 200 ng/mL PMA+300 ng/mL ionomycin and incubated for 48 hours. […] IC50 values were calculated using GraphPad Prism using 4-parameter non-linear regression curve fit.

| SMILES | IC50 |
| --- | --- |
| Cc1cc2c(cc1C)CC(Nc1ccc([C@H](N(C)C(=O)C3CCS(=O)(=O)CC3)C(F)(F)F)nc1)C2 [Example 260, (S)—N-(1-(5-((5,6-Dimethyl-2,3-dihydro-1H-inden-2-yl)amino)pyridin-2-yl)-2,2,2-trifluoroethyl)-N-methyltetrahydro-2H-thiopyran-4-carboxamide 1,1-dioxide] | 0.86 µM |
| CN(C(=O)[C@@H]1CNC(=O)C1)[C@@H](c1ccc(N[C@H]2Cc3ccc(Cl)cc3C2)cn1)C(F)(F)F [Example 300, (S)—N—((S)-1-(5-(((S)-5-Chloro-2,3-dihydro-1H-inden-2-yl)amino)pyridin-2-yl)-2,2,2-trifluoroethyl)-N-methyl-5-oxopyrrolidine-3-carboxamide] | 0.35 µM |
| CN(C(=O)C1CCS(=O)(=O)CC1)[C@@H](c1ccc(NC2Cc3ccccc3C2)cc1)C(F)(F)F [Example 3, (S)—N-(1-(4-((2,3-Dihydro-1H-inden-2-yl)amino)phenyl)-2,2,2-trifluoroethyl)-N-methyltetrahydro-2H-thiopyran-4-carboxamide 1,1-dioxide] | 1.94 µM |

Second part, the compound after the results:

| IC50 | SMILES |
| --- | --- |
| 0.17 µM | CNC(=O)[C@H]1C[C@H](C(=O)N(C)[C@@H](c2ccc(N[C@H]3Cc4ccccc4C3(C)C)cn2)C(F)(F)F)C1 [Example 247, (1,3-trans)-N—((S)-1-(5-(((S)-1,1-Dimethyl-2,3-dihydro-1H-inden-2-yl)amino)pyridin-2-yl)-2,2,2-trifluoroethyl)-N^1,N^3-dimethylcyclobutane-1,3-dicarboxamide] |
| 0.2 µM | CC(=O)N1CCC(C(=O)N(C)[C@@H](c2ccc(N[C@H]3Cc4ccccc4C3(C)C)cn2)C(F)(F)F)CC1 [Example 224, 1-Acetyl-N—((S)-1-(5-(((S)-1,1-dimethyl-2,3-dihydro-1H-inden-2-yl)amino)pyridin-2-yl)-2,2,2-trifluoroethyl)-N-methylpiperidine-4-carboxamide] |
| 0.33 µM | CNC(=O)[C@H]1C[C@@H](C(=O)N(C)[C@@H](c2ccc(N[C@H]3Cc4ccccc4C3(C)C)cn2)C(F)(F)F)C1 [Example 240, (1,3-cis)-N^1—((S)-1-(5-(((S)-1,1-Dimethyl-2,3-dihydro-1H-inden-2-yl)amino)pyridin-2-yl)-2,2,2-trifluoroethyl)-N^1,N^3-dimethylcyclobutane-1,3-dicarboxamide] |
| 0.4 µM | CC(=O)N[C@H]1C[C@@H](C(=O)N(C)[C@@H](c2ccc(N[C@H]3Cc4ccccc4C3(C)C)cn2)C(F)(F)F)C1 [Example 182, (1,3-cis)-3-Acetamido-N—((S)-1-(5-(((S)-1,1-dimethyl-2,3-dihydro-1H-inden-2-yl)amino)pyridin-2-yl)-2,2,2-trifluoroethyl)-N-methylcyclobutane-1-carboxamide] |
| 0.18 µM | CN(C(=O)[C@@H]1CNC(=O)C1)[C@@H](c1ccc(N[C@H]2Cc3ccccc3C2(C)C)cn1)C(F)(F)F [Example 160, (S)—N—((S)-1-(5-(((S)-1,1-Dimethyl-2,3-dihydro-1H-inden-2-yl)amino)pyridin-2-yl)-2,2,2-trifluoroethyl)-N-methyl-5-oxopyrrolidine-3-carboxamide] |
| 0.33 µM | CN(C(=O)[C@H]1CCC(=O)NC1)[C@@H](c1ccc(N[C@H]2Cc3ccccc3C2(C)C)nc1)C(F)(F)F [Example 219] |
| 0.26 µM | CN(C(=O)[C@H]1C[C@H](NS(C)(=O)=O)C1)[C@@H](c1ccc(N[C@H]2Cc3ccccc3C2(C)C)cn1)C(F)(F)F [Example 222, (1,3-trans)-N—((S)-1-(5-(((S)-1,1-Dimethyl-2,3-dihydro-1H-inden-2-yl)amino)pyridin-2-yl)-2,2,2-trifluoroethyl)-N-methyl-3-(methylsulfonamido)cyclobutane-1-carboxamide] |

Same assay, conditions: Jurkat cells (clone E6-1), 200 ng/mL PMA + 300 ng/mL ionomycin, 48 hours, IL-2 by ELISA

| IC50 | SMILES |
| --- | --- |
| 2.64 µM | CN(C(=O)c1cc[nH]c(=O)c1)C(c1ccc(NC2Cc3ccccc3C2(C)C)nc1)C(F)(F)F (single isomer, unassigned) [Example 101, N-(1-(6-((1,1-Dimethyl-2,3-dihydro-1H-inden-2-yl)amino)pyridin-3-yl)-2,2,2-trifluoroethyl)-N-methyl-2-oxo-1,2-dihydropyridine-4-carboxamide] |
| 0.85 µM | CN(C(=O)c1cc[nH]c(=O)c1)C(c1ccc(NC2Cc3ccccc3C2(C)C)nc1)C(F)(F)F (single isomer, unassigned) [Example 100, N-(1-(6-((1,1-Dimethyl-2,3-dihydro-1H-inden-2-yl)amino)pyridin-3-yl)-2,2,2-trifluoroethyl)-N-methyl-2-oxo-1,2-dihydropyridine-4-carboxamide] |
| 0.25 µM | CN(C(=O)N1CCC(C)(O)CC1)[C@@H](c1ccc(NC2Cc3ccccc3C2(C)C)cc1)C(F)(F)F (single isomer, unassigned) [Example 16] |
| 2.95 µM | CN(C(=O)N1CCC(C)(O)CC1)[C@@H](c1ccc(NC2Cc3ccccc3C2(C)C)cc1)C(F)(F)F (single isomer, unassigned) [Example 17] |
